Data from patent US20210317140A1, “Heterocyclic Compounds and Methods of Use” (MEDIVATION TECHNOLOGIES, INC, priority 2013, published 2021).
“And” between values parts separate entries of the source, which are not always exact repeats. Equal entries are not always repeated.

Experiments:
BTK = target: T1, BTK (Homo sapiens, UniProt Q06187); test: BTK kinase assay (HotSpot, 33P ATP); type: biochemical; details: for BTK @ 0.1 μM (% Inh): 0.1 μM compound; for BTK @ 0.1 μM (% Inh) / BTK @ 1 μM (% Inh) / BTK @ 0.01 μM (% Inh): 10 μM ATP; for BTK @ 1 μM (% Inh): 1 μM compound; for BTK @ 0.01 μM (% Inh): 0.01 μM compound; for IC50: 10 dose IC50, 10 μM ATP
T1 construct: purchased Reaction Biology Corporation
T1 sequence (Q06187 whole entry): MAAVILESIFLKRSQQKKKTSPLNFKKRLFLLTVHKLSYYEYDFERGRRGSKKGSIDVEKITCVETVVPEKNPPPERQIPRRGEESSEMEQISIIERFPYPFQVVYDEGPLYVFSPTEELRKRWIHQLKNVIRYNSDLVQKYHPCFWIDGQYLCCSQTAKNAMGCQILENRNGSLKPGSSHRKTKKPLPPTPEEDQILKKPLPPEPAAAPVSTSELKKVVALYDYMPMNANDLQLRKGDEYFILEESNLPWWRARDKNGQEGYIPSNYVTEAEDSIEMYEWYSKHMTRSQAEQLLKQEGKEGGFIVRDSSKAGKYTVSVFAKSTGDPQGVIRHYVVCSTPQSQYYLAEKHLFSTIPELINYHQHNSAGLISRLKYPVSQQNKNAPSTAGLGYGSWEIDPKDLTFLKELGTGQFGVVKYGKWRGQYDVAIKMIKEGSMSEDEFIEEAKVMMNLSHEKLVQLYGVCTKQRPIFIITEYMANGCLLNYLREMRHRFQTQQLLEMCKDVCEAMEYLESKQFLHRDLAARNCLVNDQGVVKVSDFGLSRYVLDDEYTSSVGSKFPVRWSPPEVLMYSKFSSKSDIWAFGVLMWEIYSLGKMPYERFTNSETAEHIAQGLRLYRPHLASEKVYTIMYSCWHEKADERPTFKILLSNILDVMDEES
Description: (§1) Compounds of the invention were profiled in a 10 dose IC50 panel against BTK and PI3Kδ, both provided by Reaction Biology Corporation.
BTK assay: In vitro profiling protein kinases was performed using the “HotSpot” assay platform. Briefly, specific kinase/substrate pairs along with required cofactors were prepared in reaction buffer. Compounds were prepared as 10 mM stock solutions in DMSO. Compounds were delivered into the reaction, followed 15-20 minutes later by addition of a mixture of ATP (Sigma, St. Louis Mo.) and ^33P ATP (Perkin Elmer, Waltham Mass.) to a final concentration of 10 μM. […] IC50 values and curve fits were obtained using Prism (GraphPad Software). Buffer Conditions: 20 mM Hepes (pH 7.5), 10 mM MgCl2, 1 mM EGTA, 0.02% Brij35, 0.02 mg/mL BSA, 0.1 mM Na3VO4, 2 mM DTT, 1% DMSO.

PI3Kδ = target: T2, PI3Kδ (Homo sapiens, UniProt O00329); test: PI3Kδ kinase assay (HTRF, PIP3 detection); type: biochemical; details: for PI3Kδ @ 0.1 μM (% Inh): 0.1 μM compound; for PI3Kδ @ 0.1 μM (% Inh) / PI3Kδ @ 1 μM (% Inh) / PI3Kδ @ 0.01 μM (% Inh): 10 μM ATP; for PI3Kδ @ 1 μM (% Inh): 1 μM compound; for PI3Kδ @ 0.01 μM (% Inh): 0.01 μM compound; for IC50: 10 dose IC50, 10 μM ATP
T2 construct: purchased Reaction Biology Corporation
T2 sequence (O00329 whole entry): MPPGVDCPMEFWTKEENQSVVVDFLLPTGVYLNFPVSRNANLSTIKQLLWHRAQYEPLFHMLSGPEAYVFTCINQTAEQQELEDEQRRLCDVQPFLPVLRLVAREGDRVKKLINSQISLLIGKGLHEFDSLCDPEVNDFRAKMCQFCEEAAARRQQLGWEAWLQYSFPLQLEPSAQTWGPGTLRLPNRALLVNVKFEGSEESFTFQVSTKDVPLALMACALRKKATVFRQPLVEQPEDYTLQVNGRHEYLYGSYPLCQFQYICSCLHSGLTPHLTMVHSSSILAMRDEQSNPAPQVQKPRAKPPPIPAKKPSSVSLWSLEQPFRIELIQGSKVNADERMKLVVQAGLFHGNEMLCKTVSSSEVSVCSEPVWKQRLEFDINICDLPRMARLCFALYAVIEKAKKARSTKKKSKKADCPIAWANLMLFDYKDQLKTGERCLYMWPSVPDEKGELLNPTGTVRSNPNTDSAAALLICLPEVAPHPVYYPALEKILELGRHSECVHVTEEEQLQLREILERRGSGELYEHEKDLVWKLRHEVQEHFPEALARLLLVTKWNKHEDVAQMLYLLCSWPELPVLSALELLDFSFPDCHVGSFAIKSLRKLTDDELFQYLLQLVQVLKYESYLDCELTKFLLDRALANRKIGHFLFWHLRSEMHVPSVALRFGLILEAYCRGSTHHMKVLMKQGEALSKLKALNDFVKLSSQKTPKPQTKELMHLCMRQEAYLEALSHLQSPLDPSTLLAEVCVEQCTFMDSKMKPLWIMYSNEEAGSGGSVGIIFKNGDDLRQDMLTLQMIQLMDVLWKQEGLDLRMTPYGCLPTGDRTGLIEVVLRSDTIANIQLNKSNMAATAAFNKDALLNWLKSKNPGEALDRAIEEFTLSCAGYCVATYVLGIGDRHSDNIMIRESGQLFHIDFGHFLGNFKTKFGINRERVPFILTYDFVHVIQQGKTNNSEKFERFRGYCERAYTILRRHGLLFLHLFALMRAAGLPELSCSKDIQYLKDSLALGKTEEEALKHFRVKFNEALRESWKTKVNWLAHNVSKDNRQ
T2 sequence (P27986 whole entry partner): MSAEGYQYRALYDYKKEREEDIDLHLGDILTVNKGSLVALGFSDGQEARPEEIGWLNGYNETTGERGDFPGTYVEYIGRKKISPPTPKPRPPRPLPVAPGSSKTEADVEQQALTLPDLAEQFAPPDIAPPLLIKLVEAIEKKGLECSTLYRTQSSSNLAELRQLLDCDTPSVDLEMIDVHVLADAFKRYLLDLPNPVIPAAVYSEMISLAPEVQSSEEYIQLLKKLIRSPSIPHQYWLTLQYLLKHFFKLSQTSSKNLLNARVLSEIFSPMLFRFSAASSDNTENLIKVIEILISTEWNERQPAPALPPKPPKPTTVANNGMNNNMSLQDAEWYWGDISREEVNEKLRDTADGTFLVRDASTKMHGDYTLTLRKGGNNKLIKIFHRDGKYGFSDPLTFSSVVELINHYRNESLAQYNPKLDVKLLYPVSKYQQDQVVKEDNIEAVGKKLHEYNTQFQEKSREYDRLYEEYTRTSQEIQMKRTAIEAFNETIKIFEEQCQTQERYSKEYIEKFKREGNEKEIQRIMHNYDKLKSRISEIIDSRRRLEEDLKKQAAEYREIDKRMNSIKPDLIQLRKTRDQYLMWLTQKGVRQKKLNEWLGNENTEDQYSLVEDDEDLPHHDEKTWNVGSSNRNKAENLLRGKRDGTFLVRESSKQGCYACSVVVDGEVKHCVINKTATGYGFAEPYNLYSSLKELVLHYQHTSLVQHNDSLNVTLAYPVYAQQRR
Text: as §1
PI3Kδ assay: The PIP3 product is detected by displacement of biotin-PIP3 from an energy transfer complex consisting of Europium labeled anti-GST monoclonal antibody, a GST-tagged pleckstrin homology (PH) domain, biotinylated PIP3 and Streptavidin-Allophycocyanin (APC). […] The PIP3 product formed by PI 3-Kinase(h) activity displaces biotin-PIP3 from the complex resulting in a loss of energy transfer and thus a decrease in signal. This is a 3-step reaction: First, the kinase reaction with PIP2 substrate is carried out in the presence of ATP (10 μM), and the reaction is quenched with stop Solution, and then finally detect by adding Detection Mixture followed by incubation (10 min). Reaction procedure: 1) Prepare substrate in freshly prepared Reaction Buffer. 2) Deliver kinase into the substrate solution and gently mix. 3) Deliver compounds in 100% DMSO (1 μM) into the kinase reaction mixture by Acoustic technology (Echo550; nanoliter range), incubate for 10 min at RT. 4) Deliver ATP into the reaction mixture to initiate the reaction. 5) Incubate for 30 min at 30° C. 6) Quench the reaction with Stop Solution. 7) Add Detection Mixture, and incubate for overnight. […] The emission ratio is converted into μM PIP3 production based on PIP3 standard curves. The nonlinear regression to obtain the standard curve and IC50 values are performed using Graphpad Prism software. Assay Buffer: HEPES 50 mM (pH7.0), NaN3 0.02%, BSA 0.01%, Orthovanadate 0.1 mM, 1% DMSO. Detection buffer: HEPES 10 mM (pH7.0), BSA 0.02%, KF 0.16 M, EDTA 4 mM. Substrate: 10 μM PIP2 substrate (PI(4,5)P2).

Row | SMILES | BTK @ 0.1 μM (% Inh) (BTK) | PI3Kδ @ 0.1 μM (% Inh) (PI3Kδ) | BTK @ 1 μM (% Inh) (BTK) | PI3Kδ @ 1 μM (% Inh) (PI3Kδ) | BTK @ 0.01 μM (% Inh) (BTK) | PI3Kδ @ 0.01 μM (% Inh) (PI3Kδ) | IC50 (BTK) | IC50 (PI3Kδ)
1 | Nc1ncnc2c1c(-c1cccc3[nH]ccc13)nn2C1Cc2ccccc2C1 [Compound No. 78, 1-(2,3-dihydro-1H-inden-2-yl)-3-(1H-indol-4-yl)-1H-pyrazolo[3,4-d]pyrimidin-4-amine] | 18.18 | 4.96 | 54.62 | 43.86 |  |  |  | 
2 | Nc1ncnc2c1c(CCCO)nn2C1Cc2ccccc2C1 (single isomer, unassigned) [Compound No. 65, 3-[4-amino-1-(2,3-dihydro-1H-inden-2-yl)-1H-pyrazolo[3,4-d]pyrimidin-3-yl]propan-1-ol] | 4.02 | −4.81 | 7.69 | 11.18 |  |  |  | 
3 | Nc1ncnc2c(C3Cc4ccccc4C3)cn(-c3cc(O)c(F)c(F)c3)c12 [compound 137, 5-[4-amino-7-(2,3-dihydro-1H-inden-2-yl)-5H-pyrrolo[3,2-d]pyrimidin-5-yl]-2,3-difluorophenol] | 96.31 | 45.54 |  |  | 87.65 | 6.28 |  | 
4 | Nc1ncnc2c1c(-c1cc(O)c(F)c(F)c1)nn2C1Cc2cc(F)ccc2C1=O (stereo not drawn) [compound 127, 2-[4-amino-3-(3,4-difluoro-5-hydroxyphenyl)-1H-pyrazolo[3,4-d]pyrimidin-1-yl]-5-fluoro-2,3-dihydro-1H-inden-1-one] | 21.87 | 51.48 |  |  | 9.24 | 16.23 |  | 
5 | Nc1ncnc2c1c(-c1ccc(F)c(O)c1)nn2C1CCCc2ccccc21 (stereo not drawn) [compound 12, 5-(4-amino-1-tetralin-1-yl-pyrazolo[3,4-d]pyrimidin-3-yl)-2-fluoro-phenol] | 31.62 | 6.22 |  |  |  |  |  | 
6 | COc1cc(F)cc(-c2nn(C3Cc4ccccc4C3)c3ncnc(N)c23)c1 [compound 5, 1-(2,3-dihydro-1H-inden-2-yl)-3-(3-fluoro-5-methoxyphenyl)-1H-pyrazolo[3,4-d]pyrimidin-4-amine] | 26.26 | 25.0 | 76.16 | 54.63 |  |  | 1970 nM and 1100 nM | 2790 nM and 1220 nM
7 | COc1ccc(-c2nn(C3CCCc4ccccc43)c3ncnc(N)c23)cc1OC (stereo not drawn) [compound 33, 3-(3,4-dimethoxyphenyl)-1-(1,2,3,4-tetrahydronaphthalen-1-yl)-1H-pyrazolo[3,4-d]pyrimidin-4-amine] | 7.04 | 27.41 |  |  |  |  |  | 
8 | Nc1ncnc2c1c(-c1ccc3c(c1)NCCO3)nn2C1Cc2ccccc2C1 [Compound No. 99, 1-(2,3-dihydro-1H-inden-2-yl)-3-(3,4-dihydro-2H-1,4-benzoxazin-6-yl)-1H-pyrazolo[3,4-d]pyrimidin-4-amine] | 56.81 | 39.74 |  |  | 17.69 | 17.4 | 79.6 nM | 167 nM
9 | Nc1ncnc2c1c(-c1cc(O)cc(F)c1)nn2C1CCc2ccccc21 (stereo not drawn) [compound 30, 3-(4-amino-1-indan-1-yl-pyrazolo[3,4-d]pyrimidin-3-yl)-5-fluoro-phenol] | 35.16 | 64.19 |  |  |  |  | 217 nM | 13 nM
10 | CC(=O)Nc1cc(F)cc(-c2nn(C3Cc4ccccc4C3)c3ncnc(N)c23)c1 [Compound No. 60, N-{3-[4-amino-1-(2,3-dihydro-1H-inden-2-yl)-1H-pyrazolo[3,4-d]pyrimidin-3-yl]-5-fluorophenyl}acetamide] | 16.91 | 10.65 | 30.02 | 31.35 |  |  |  | 
11 | CCOc1ccc(-c2nn(C3Cc4ccccc4C3)c3ncnc(N)c23)cc1OC [Compound No. 71, 1-(2,3-dihydro-1H-inden-2-yl)-3-(4-ethoxy-3-methoxyphenyl)-1H-pyrazolo[3,4-d]pyrimidin-4-amine] | 24.51 | 47.56 | 71.58 | 89.24 |  |  | 392 nM | 63.9 nM
12 | Cc1nc2ccc(-c3nn(C4Cc5ccccc5C4)c4ncnc(N)c34)cc2[nH]1 [Compound No. 82, 1-(2,3-dihydro-1H-inden-2-yl)-3-(2-methyl-1H-1,3-benzodiazol-6-yl)-1H-pyrazolo[3,4-d]pyrimidin-4-amine] | 11.64 | 41.76 | 30.18 | 82.95 |  |  |  | 
13 | Cn1ncc2c(-c3nn(C4Cc5ccccc5C4)c4ncnc(N)c34)cccc21 [Compound No. 98, 1-(2,3-dihydro-1H-inden-2-yl)-3-(1-methyl-1H-indazol-4-yl)-1H-pyrazolo[3,4-d]pyrimidin-4-amine] | 12.62 | 19.14 |  |  | 8.24 | 14.09 |  | 

The next lines start with the values.

Row | BTK @ 0.1 μM (% Inh) (BTK) | PI3Kδ @ 0.1 μM (% Inh) (PI3Kδ) | BTK @ 1 μM (% Inh) (BTK) | PI3Kδ @ 1 μM (% Inh) (PI3Kδ) | BTK @ 0.01 μM (% Inh) (BTK) | PI3Kδ @ 0.01 μM (% Inh) (PI3Kδ) | IC50 (BTK) | IC50 (PI3Kδ) | SMILES
14 | 12.61 | 48.6 |  |  |  |  |  |  | Nc1ncnc2c1c(-c1ccc(O)c(O)c1)nn2C1CCc2ccccc2C1 (stereo not drawn) [compound 1, 4-(4-amino-1-tetralin-2-yl-pyrazolo[3,4-d]pyrimidin-3-yl)benzene-1,2-diol]
15 | 9.25 | 6.493 | 24.21 | 37.25 |  |  |  |  | Nc1ncnc2c1c(-c1ccnc(O)c1)nn2C1Cc2ccccc2C1 [Compound No. 52, 4-[4-amino-1-(2,3-dihydro-1H-inden-2-yl)-1H-pyrazolo[3,4-d]pyrimidin-3-yl]pyridin-2-ol]
16 | 24.0 | 51.94 |  |  |  |  |  |  | Nc1ncnc2c1c(-c1cnc3[nH]ccc3c1)nn2C1CCc2ccccc2C1 (racemic) [compound 16, 3-(1H-pyrrolo[2,3-b]pyridin-5-yl)-1-(1,2,3,4-tetrahydronaphthalen-2-yl)-1H-pyrazolo[3,4-d]pyrimidin-4-amine]
17 | 66.35 | 41.21 |  |  |  |  |  |  | Nc1ncnc2c1c(-c1cccc(O)c1)nn2C1Cc2ccccc2C1 [Compound No. 40, 3-[4-amino-1-(2,3-dihydro-1H-inden-2-yl)-1H-pyrazolo[3,4-d]pyrimidin-3-yl]phenol]
18 | 49.32 | 12.84 | 87.47 | 44.54 |  |  |  |  | Nc1cccc(-c2nn(C3Cc4ccccc4C3)c3ncnc(N)c23)c1 [Compound No. 45, 3-(3-aminophenyl)-1-(2,3-dihydro-1H-inden-2-yl)-1H-pyrazolo[3,4-d]pyrimidin-4-amine]
19 | 29.59 | 15.52 |  |  |  |  |  |  | Nc1ncnc2c1c(-c1ccc3cc[nH]c3c1)nn2C1CCc2ccccc21 (stereo not drawn) [compound 37, 1-(2,3-dihydro-1H-inden-1-yl)-3-(1H-indol-6-yl)-1H-pyrazolo[3,4-d]pyrimidin-4-amine]
20 |  |  |  |  |  |  | 2020 nM | 157 nM | Nc1ncnc2c1c(-c1cn[nH]c1)nn2C1CCc2ccccc2C1 (racemic) [compound 20, 3-(1H-pyrazol-4-yl)-1-(1,2,3,4-tetrahydronaphthalen-2-yl)-1H-pyrazolo[3,4-d]pyrimidin-4-amine]
21 |  |  |  |  |  |  | 891 nM | 1340 nM | COc1cc(F)cc(-c2nn(C3CCc4ccccc4C3)c3ncnc(N)c23)c1 (stereo not drawn) [compound 7, 3-(3-fluoro-5-methoxyphenyl)-1-(1,2,3,4-tetrahydronaphthalen-2-yl)-1H-pyrazolo[3,4-d]pyrimidin-4-amine]
22 | 17.55 | 15.89 |  |  | 7.67 | 18.98 |  |  | Nc1ncnc2c1c(-c1cccc(F)c1)nn2C1Cc2ccccc2C1 [Compound No. 88, 1-(2,3-dihydro-1H-inden-2-yl)-3-(3-fluorophenyl)-1H-pyrazolo[3,4-d]pyrimidin-4-amine]
